These results are taken from article PMC12446476 (Nature Communications, 2025).

Data set [1] concerns intracellular N. gonorrhoeae. Nature of the data set: Intracellular killing in HeLa229 cells. The class given is cell-based, Neisseria gonorrhoeae. As to conditions: within 24 h. The procedure:
Intracellular killing was assessed within HeLa229 cells (European Collection of Authenticated Cell Cultures, London, UK) that were seeded at ~3 × 10^5 cells/mL and grown to 70–80% confluence in RPMI-glutamine media supplemented with 10% (v/v) heat-inactivated fetal bovine serum (FBS, Gibco, MA, USA). Cells were incubated at 37 °C with 5% CO2 for 24 h, then washed with serum-free RPMI-1640 prior to infection. N. gonorrhoeae was scraped from agar plates and resuspended in Dulbecco’s Phosphate Buffered Saline (DPBS, Sigma-Aldrich), pelleted, then resuspended in RPMI with 2% FBS. Bacterial suspensions were used to infect HeLa229 cells at a multiplicity of infection of 100:1. Plates were briefly centrifuged (500 × g for 5 min), then incubated for one hour. This incubation and all subsequent incubations were performed at 37 °C with 5% CO2. Non-adherent cells were removed by washing with serum-free RPMI, and the remaining extracellular bacteria were killed via resuspension in RPMI-glutamine supplemented with 2% FBS and 200 μg/mL gentamycin and incubation for one hour. […] Azithromycin-treated samples were included for control/comparison. […] Samples were diluted and plated onto chocolate II agar for viable bacteria quantification. Intracellular killing assays were performed at Microbiologics, Kalamazoo, MI, USA, using a method adapted from previous studies[68],[69].

A further data set relates to N. gonorrhoeae. Nature of the data set: MIC determination, agar dilution (CLSI). The class given is cell-based, Neisseria gonorrhoeae. Particulars: for MIC: Neisseria gonorrhoeae. The source says:
The 2024 WHO N. gonorrhoeae reference strains were used for quality control. Only whole MIC doubling dilutions are reported. Clinical breakpoints or the epidemiological cutoff (ECOFF, to indicate azithromycin resistance) from EUCAST (v14.0, https://www.eucast.org/clinical_breakpoints) were used to classify isolates as antimicrobial susceptible or resistant. […] Two times the standard inoculum defined by CLSI was used to establish consistent growth in untreated control samples for some strains. In vitro time-kill assays were performed according to CLSI guidelines[65] using Columbia Broth (BD Difco) supplemented with 1% IsoVitaleX Enrichment (BD). Viable bacterial counts were generated by plating 10-fold serially diluted samples on GC agar plates containing 1% IsoVitaleX Enrichment (BD).
A general note: In agar dilution, organisms are placed on agar that contains the substance at set levels.

SMILES strings stand for the structures. Values after ≈ are worked out from the molar mass of the structure shown. Read-outs that look alike come from different tables or passages of the source.

Description for Caco-2 cell monolayers: Various controls were assessed in parallel, including atenolol (low permeability) and diclofenac (high permeability).
The instrument operated in positive ionisation mode (ESI + ) over a m/z range of 80–1000 (n = 1 measure per sample). Data were extracted from chromatograms using calculated monoisotopic accurate masses for protonated molecular ions within 5 ppm windows.

For the compound `CC[C@H]1OC(=O)[C@H](C)[C@@H](O[C@H]2C[C@@](C)(OC)[C@@H](O)[C@H](C)O2)[C@H](C)[C@@H](O[C@@H]2O[C@H](C)C[C@H](N(C)C)[C@H]2O)[C@](C)(O)C[C@@H](C)CN(C)[C@H](C)[C@@H](O)[C@]1(C)O` [Azithromycin], the “reduction of intracellular bacteria” value is given as ≥ 3.3 log10CFU/mL in data set [1] (ATCC 49226 in HeLa229 cells) and ≥ 2.8 log10CFU/mL in data set [1] (WHO X in HeLa229 cells).

`CO/N=C(\C(=O)N[C@@H]1C(=O)N2C(C(=O)O)=C(CSc3nc(=O)c(=O)[nH]n3C)CS[C@H]12)c1csc(N)n1` [Ceftriaxone, reference compound]: the “susceptibility of all isolates” value in the data set on N. gonorrhoeae (100 contemporary clinical N. gonorrhoeae isolates, EUCAST) is recorded as “susceptible”. Further, the MIC (usually the lowest concentration found to suppress growth) was 0.002 µg/mL (≈ 0.00361 µM) in the data set with N. gonorrhoeae (ATCC700825, ATCC 700825, mode of multiple measures, read-out: MIC); 0.25 µg/mL (≈ 0.451 µM) with N. gonorrhoeae (WHO H, agar dilution, read-out: MIC); 0.06 µg/mL (≈ 0.108 µM) with N. gonorrhoeae (WHO K, agar dilution, read-out: MIC); 0.25 µg/mL (≈ 0.451 µM) with N. gonorrhoeae (WHO L, agar dilution, read-out: MIC); 0.5 µg/mL (≈ 0.902 µM) in the data set on N. gonorrhoeae (WHO Q, agar dilution, read-out: MIC); 0.5 µg/mL (≈ 0.902 µM) in the data set with N. gonorrhoeae (WHO R, agar dilution, read-out: MIC). The MIC with N. gonorrhoeae (WHO S2, agar dilution, read-out: MIC) was < 0.008 µg/mL; with N. gonorrhoeae (WHO V, agar dilution, read-out: MIC) it was 0.06 µg/mL (≈ 0.108 µM); in the data set with N. gonorrhoeae (WHO X-07 (CIP-R, CRO-R), mode of multiple measures, read-out: MIC), 2 µg/mL (≈ 3.61 µM); in the data set with N. gonorrhoeae (WHO Y, agar dilution) it was 1 µg/mL (≈ 1.8 µM). Besides, the “AMR phenotype (susceptibility category, EUCAST)” value (shortened to “AMR phenotype”) in the data set with N. gonorrhoeae (WHO F) is “S”; in the data set with N. gonorrhoeae (WHO H) it was “R”; in the data set with N. gonorrhoeae (WHO K), “S”; in the data set with N. gonorrhoeae (WHO L), “R”; with N. gonorrhoeae (WHO M), “S”; in the data set with N. gonorrhoeae (WHO O), “S”. The “AMR phenotype” value in the data set with N. gonorrhoeae (WHO P) is recorded as “S”; in the data set on N. gonorrhoeae (WHO Q), “R”; in the data set on N. gonorrhoeae (WHO R), “R”; in the data set on N. gonorrhoeae (WHO S2) it was “S”; with N. gonorrhoeae (WHO U), “S”; in the data set on N. gonorrhoeae (WHO V) it was “S”. Also, the “AMR phenotype” value in the data set on N. gonorrhoeae (WHO X), in the data set with N. gonorrhoeae (WHO Y) and in the data set on N. gonorrhoeae (WHO Z) was “R” each time.

As to `Cc1c(CN(C)C(=O)/C=C/c2cnc3c(c2)N[C@H](C)[C@H](OP(=O)([O-])[O-])C(=O)N3)oc2ccccc12.[Na+].[Na+]` [Debio 1453 P], in the data set on Caco-2 cell monolayers, the “Apparent permeability (Papp)” value is recorded as “negligible” and the “permeability through transwells A → B” value stood at 31.8 ×10⁻⁶ cm/s.
